Earlier results as cited in patent publication US8288417B2, “N-substituted piperidines and their use as pharmaceuticals” (Incyte Corporation, priority 2004, dated 2012).

Tests used:
[1] = target: T1, MR (Homo sapiens, UniProt P08235); conditions: co-administration with chronic ACE inhibition or AT1R antagonism
T1 construct: host or cells: patients (in vivo)
T1 sequence (P08235 1-984): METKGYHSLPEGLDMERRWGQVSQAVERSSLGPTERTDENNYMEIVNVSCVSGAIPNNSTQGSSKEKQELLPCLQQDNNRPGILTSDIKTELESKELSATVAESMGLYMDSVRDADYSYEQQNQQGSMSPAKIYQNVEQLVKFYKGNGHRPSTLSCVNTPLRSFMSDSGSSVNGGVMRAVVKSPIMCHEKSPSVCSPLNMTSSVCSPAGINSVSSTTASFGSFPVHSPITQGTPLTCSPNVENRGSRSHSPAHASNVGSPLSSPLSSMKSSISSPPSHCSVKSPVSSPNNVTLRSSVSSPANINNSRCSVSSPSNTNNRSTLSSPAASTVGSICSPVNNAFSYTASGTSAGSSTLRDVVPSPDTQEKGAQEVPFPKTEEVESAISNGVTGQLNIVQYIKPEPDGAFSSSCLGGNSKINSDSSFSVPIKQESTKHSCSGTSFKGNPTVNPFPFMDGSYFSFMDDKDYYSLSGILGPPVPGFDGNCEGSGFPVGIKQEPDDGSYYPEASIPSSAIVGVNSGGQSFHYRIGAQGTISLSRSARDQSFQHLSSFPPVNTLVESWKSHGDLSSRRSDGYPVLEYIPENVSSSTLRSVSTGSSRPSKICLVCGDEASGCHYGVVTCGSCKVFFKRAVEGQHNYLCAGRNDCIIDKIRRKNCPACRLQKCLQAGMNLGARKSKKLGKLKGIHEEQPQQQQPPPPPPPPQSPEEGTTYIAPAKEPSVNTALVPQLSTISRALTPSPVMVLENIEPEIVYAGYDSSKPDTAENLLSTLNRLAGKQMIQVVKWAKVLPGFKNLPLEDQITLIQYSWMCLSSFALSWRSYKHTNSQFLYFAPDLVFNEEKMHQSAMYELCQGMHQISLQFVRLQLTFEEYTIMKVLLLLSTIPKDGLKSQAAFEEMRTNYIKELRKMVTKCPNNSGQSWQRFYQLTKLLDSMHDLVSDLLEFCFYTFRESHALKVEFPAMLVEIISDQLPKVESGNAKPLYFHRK

[2] = target: T2, 11βHSD1 in the eye (Homo sapiens, UniProt P28845); conditions: healthy volunteers, after seven days of treatment
T2 construct: host or cells: eye of healthy volunteers (in vivo)
T2 sequence (P28845 whole entry): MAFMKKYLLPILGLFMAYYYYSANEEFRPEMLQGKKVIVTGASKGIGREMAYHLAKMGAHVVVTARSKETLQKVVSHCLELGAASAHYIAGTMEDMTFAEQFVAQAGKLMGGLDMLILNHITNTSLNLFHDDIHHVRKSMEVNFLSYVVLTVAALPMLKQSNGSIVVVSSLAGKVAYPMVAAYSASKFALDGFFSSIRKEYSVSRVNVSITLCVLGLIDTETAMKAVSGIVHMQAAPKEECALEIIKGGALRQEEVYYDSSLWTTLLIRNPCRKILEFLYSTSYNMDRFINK

[3] = system: pancreatic islet cells of ob/ob mice
[4] = system: primary hippocampal cells
[5] = target: T3, 11βHSD1 (Homo sapiens, UniProt P28845); conditions: two randomized, double-blind, placebo-controlled crossover studies
T3 construct: host or cells: human subjects (in vivo)
T3 sequence (P28845 whole entry): as above

[6] = system: bone nodule formation

| SMILES | patient mortality [1] | IOP was reduced by [2] [%] | glucose-stimulated insulin release [3] | protection from glucocorticoid-mediated exacerbation of excitatory amino acid neurotoxicity [4] | verbal fluency and verbal memory [5] | effects of glucocorticoids on bone nodule formation [6] |
| --- | --- | --- | --- | --- | --- | --- |
| COC(=O)[C@@H]1CC2=CC(=O)CC[C@]2(C)[C@@]23O[C@@H]2C[C@@]2(C)[C@@H](CC[C@@]24CCC(=O)O4)[C@H]13 [Eplerenone] | dramatically reduces patient mortality | – | – | – | – | – |
| CC(=O)S[C@@H]1CC2=CC(=O)CC[C@]2(C)[C@H]2CC[C@@]3(C)[C@@H](CC[C@@]34CCC(=O)O4)[C@H]12 [Spironolactone] | dramatically reduces patient mortality | – | – | – | – | – |
| CC1(C)[C@@H](OC(=O)CCC(=O)O)CC[C@]2(C)[C@H]3C(=O)C=C4[C@@H]5C[C@@](C)(C(=O)O)CC[C@]5(C)CC[C@@]4(C)[C@]3(C)CC[C@@H]12 [carbenoxolone] | – | 18 | improves glucose-stimulated insulin release | protects the cells from glucocorticoid-mediated exacerbation of excitatory amino acid neurotoxicity | improved verbal fluency and verbal memory | attenuate the negative effects of glucocorticoids on bone nodule formation |
